# Results reported in US20250101052A1, “COMPOUND FOR EGFR KINASE INHIBITOR, COMPOSITION, AND USE THEREOF” (INNOVATION INSTITUTE FOR ARTIFICIAL INTELLIGENCE IN …, priority 2021, published 2025).
# Target: EGFR^L858R/T790M/C797S kinase (Homo sapiens (Human), UniProt P00533, C797S/L858R/T790M)
# Test: EGFR^L858R/T790M/C797S kinase inhibitory activity experiment
# Format: biochemical
# Settings: in vitro
# Experimental: EGFRL^858R/T790M/C797S kinase inhibitory activity experiment: The compounds of the present invention have excellent in-vitro inhibitory activity against EGFR^L858R/T790M/C797S kinase
# • Centrifuge (manufacturer: Eppendorf, model: 5430) • Microplate reader (manufacturer: Perkin Elmer, model: Caliper EZ ReaderII) • Echo 550 (manufacturer: Labcyte, model: Echo 550) • Experimental Method • Compound preparation: • A 10 mM storage solution was prepared.
# (1) 1×Kinase buffer was prepared.
# (2) Preparation of concentration gradient of compound: The tested compound has a test concentration starting from 1 μM, diluted 10 times, with 10 concentrations, and subjected to single-well or multi-well detection. The compound was diluted to a 100% DMSO solution with a final concentration of 100 times in a 384 source plate. […] of the compound at a final concentration of 100 times was transferred to the target plate 384-well-plate using the pipette Echo 550.
# (3) A kinase solution with a final concentration of 2.5 times was prepared using 1× Kinase buffer.
# (4) 10 μL of the kinase solution with the final concentration of 2.5 times was added to a compound well and a positive control well, respectively; 10 μL of 1×Kinase buffer was added to a negative control well.
# (5) Centrifugation was conducted at 1000 rpm for 30 seconds, and the reaction plate was shaken and mixed well, and incubated at a room temperature for 10 minutes.
# (6) A mixed solution of ATP with a final concentration of 5/3 times and Kinase substrate 22 was prepared using 1×Kinase buffer.
# (7) A mixed solution of 15 μL of ATP with a final concentration of 5/3 times and a substrate was added for initial reaction.
# (8) The 384-well-plate was centrifuged at 1000 rpm for 30 seconds, shaken and mixed well, and incubated at a room temperature for 60 minutes.
# (9) 30 μL of a termination detection solution was added to stop the kinase reaction. Centrifugation was conducted at 1000 rpm for 30 seconds. Shaking and mixing well were conducted.
# (10) The conversion rate was read using Caliper EZ Reader.
# where Conversion %_sample is the conversion rate reading of the sample; Conversion %_min: the average value of negative control wells, representing the conversion rate reading of wells without enzyme activity; Conversion %_max: the average value of positive control wells, representing the conversion rate reading of wells without compound inhibition; % Inhibition represents the inhibition rate.
# Fitting of Dose-Response Curve
# Using the log value of concentration as the X-axis and the percentage inhibition rate as the Y-axis, the dose-response curve was fitted using the log(inhibitor) vs. response —Variable slope of the analysis software GraphPad Prism 5 to obtain the IC50 value of each compound on enzyme activity.
# Chain of EGFR^L858R/T790M/C797S kinase (P00533 25-1210 T790M/C797S/L858R): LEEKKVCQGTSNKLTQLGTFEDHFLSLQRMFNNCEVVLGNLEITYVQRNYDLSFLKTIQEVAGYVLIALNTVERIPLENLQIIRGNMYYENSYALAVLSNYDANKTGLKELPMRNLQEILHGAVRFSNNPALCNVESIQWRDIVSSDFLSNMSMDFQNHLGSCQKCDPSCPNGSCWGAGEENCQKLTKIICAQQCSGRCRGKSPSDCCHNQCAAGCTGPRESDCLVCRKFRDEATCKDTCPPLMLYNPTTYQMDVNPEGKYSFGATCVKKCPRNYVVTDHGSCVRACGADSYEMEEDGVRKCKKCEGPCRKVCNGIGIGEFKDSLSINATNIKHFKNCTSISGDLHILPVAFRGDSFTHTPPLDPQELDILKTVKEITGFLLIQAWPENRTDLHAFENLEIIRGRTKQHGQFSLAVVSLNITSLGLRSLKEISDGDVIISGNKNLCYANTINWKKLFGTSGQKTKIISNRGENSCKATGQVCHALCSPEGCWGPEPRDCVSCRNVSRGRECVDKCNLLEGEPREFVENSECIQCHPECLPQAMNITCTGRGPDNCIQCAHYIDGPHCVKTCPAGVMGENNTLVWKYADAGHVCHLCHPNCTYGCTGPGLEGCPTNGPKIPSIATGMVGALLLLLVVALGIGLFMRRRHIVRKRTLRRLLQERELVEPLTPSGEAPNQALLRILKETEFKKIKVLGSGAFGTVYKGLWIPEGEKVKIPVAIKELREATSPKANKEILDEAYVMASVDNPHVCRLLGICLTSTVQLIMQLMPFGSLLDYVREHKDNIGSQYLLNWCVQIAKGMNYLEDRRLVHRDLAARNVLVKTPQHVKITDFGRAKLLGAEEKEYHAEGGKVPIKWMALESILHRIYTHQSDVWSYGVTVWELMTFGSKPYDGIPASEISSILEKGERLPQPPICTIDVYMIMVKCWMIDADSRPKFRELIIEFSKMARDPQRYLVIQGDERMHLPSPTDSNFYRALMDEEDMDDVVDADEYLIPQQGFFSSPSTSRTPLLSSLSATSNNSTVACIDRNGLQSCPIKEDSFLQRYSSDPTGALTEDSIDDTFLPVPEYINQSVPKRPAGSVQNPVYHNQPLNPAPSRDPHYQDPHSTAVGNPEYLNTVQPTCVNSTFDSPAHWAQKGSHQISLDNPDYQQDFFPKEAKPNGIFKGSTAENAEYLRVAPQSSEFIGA
row,IC50,Compound
1,8.23 nM,"CCc1cc(Nc2ncc(Cl)c(Nc3ccc(C)c(C)c3P(C)(C)=O)n2)c(OC)cc1N1CCC2(CC1)CC(N1CC(C#N)C1)C2 [Compound 49, 1-(7-(4-((5-chloro-4-((2-(dimethylphosphoryl)-3,4-dimethylphenyl)amino)pyrimidin-2-yl)amino)-2-ethyl-5-methoxyphenyl)-7-azaspiro[3.5]nonan-2-yl)azetidine-3-carbonitrile]"
2,0.74 nM,CCc1cc(Nc2ncc(Cl)c(Nc3ccc(C)c(C)c3P(C)(C)=O)n2)c(OC)cc1N1CC2(CCN(CC3CC3)CC2)C1 [Compound 26]
3,16 nM,"COc1cc(N2CCC3(CCN(C)CC3)CC2)ccc1Nc1ncc(Cl)c(Nc2ccc(C)c(C)c2P(C)(C)=O)n1 [Compound 4, (6-((5-Chloro-2-((2-methoxy-4-(9-methyl-3,9-diazaspiro[5.5]undecan-3-yl)phenyl)amino)pyrimidin-4-yl)amino)-2,3-dimethylphenyl)dimethylphosphine oxide]"
4,29 nM,"CCc1cc(Nc2ncc(Cl)c(Nc3cc(C)c(C)cc3P(C)(C)=O)n2)c(OC)cc1N1CCC2(CC1)CN(C)C2 [Compound 20, (2-((5-Chloro-2-((5-ethyl-2-methoxy-4-(2-methyl-2,7-diazaspiro[3.5]non-7-yl)phenyl)amino)pyrimidin-4-yl)amino)-4,5-dimethylphenyl)dimethylphosphine oxide]"
5,10 nM,COc1cc(N2CCC3(CC2)CC(N(C)C)C3)c(F)cc1Nc1ncc(Cl)c(Nc2ccc(C)c(C)c2P(C)(C)=O)n1 [Compound 22]
6,89 nM,"COc1cc(N2CC3(CCC(N(C)C)CC3)C2)ccc1Nc1ncc(Cl)c(Nc2ccc(C)c(C)c2P(C)(C)=O)n1 [Compound 2, (6-((5-Chloro-2-((4-(7-(dimethylamino)-2-azaspiro[3.5]nonane-2-yl)-2-methoxyphenyl)amino)pyrimidin-4-yl)amino)-2,3-dimethylphenyl)dimethylphosphine oxide]"
7,0.85 nM,COc1cc(N2CC3(CCN(C)CC3)C2)c(Cl)cc1Nc1ncc(Cl)c(Nc2cc(C)c(C)cc2P(C)(C)=O)n1 [Compound 40]
8,0.78 nM,CCc1cc(Nc2ncc(Cl)c(Nc3cccc(Cl)c3P(C)(C)=O)n2)c(OC)cc1N1CC2(CCN(CC)CC2)C1 [Compound 47]
9,5 nM,"CCc1cc(Nc2ncc(Cl)c(Nc3cc(C)c(C)cc3P(C)(C)=O)n2)c(OC)cc1N1CCC(N2CCN(C)CC2)CC1 [Compound 11, (2-((5-chloro-2-((5-ethyl-2-methoxy-4-(4-(4-methylpiperazin-1-yl)piperidin-1-yl)phenyl)amino)pyrimidin-4-yl)amino)-4,5-dimethylphenyl)dimethylphosphine oxide]"
10,0.84 nM,COc1cc(N2CC3(CCN(C)CC3)C2)c(Cl)cc1Nc1ncc(Cl)c(Nc2ccc(C)c(C)c2P(C)(C)=O)n1 [Compound 34]
11,0.48 nM,CCc1cc(Nc2ncc(Cl)c(Nc3cc(C)c(C)cc3P(C)(C)=O)n2)c(OC)cc1N1CC2(CCN(C)CC2)C1 [Compound 44]

# Second part, the compound before the results:
row,Compound,IC50
1,CCc1cc(Nc2ncc(Cl)c(Nc3cc(C)c(C)cc3P(C)(C)=O)n2)c(OC)cc1N1CC2(CCN(CC(F)F)CC2)C1 [Compound 45],0.74 nM
2,CCc1cc(Nc2ncc(Cl)c(Nc3cc(Cl)c(Cl)cc3P(C)(C)=O)n2)c(OC)cc1N1CC2(CCN(C)CC2)C1 [Compound 36],0.96 nM
3,"CCc1cc(Nc2ncc(Cl)c(Nc3ccc(C)c(C)c3P(C)(C)=O)n2)c(OC)cc1N1CCC2(CC1)CN(C(C)=O)C2 [Compound 30, 1-(7-(4-((5-chloro-4-((2-(dimethylphosphoryl)-3,4-dimethylphenyl)amino)pyrimidin-2-yl)amino)-2-ethyl-5-methoxyphenyl)-2,7-diazaspiro[3.5]nonan-2-yl)ethan-1-one]",6.78 nM
4,"CCc1cc(Nc2ncc(Cl)c(Nc3cc(Cl)c(Cl)cc3P(C)(C)=O)n2)c(OC)cc1N1CC2(CCC(CC#N)CC2)C1 [Compound 39, 2-(2-(4-((5-chloro-4-((4,5-dichloro-2-(dimethylphosphoryl)phenyl)amino)pyrimidin-2-yl)amino)-2-ethyl-5-methoxyphenyl)-2-azaspiro[3.5]nonan-7-yl)acetonitrile]",12.1 nM
5,CCc1cc(Nc2ncc(Cl)c(Nc3ccc(C)c(C)c3P(C)(C)=O)n2)c(OC)cc1N1CC2(CCN(CC)CC2)C1 [Compound 27],0.81 nM
6,"CCc1cc(Nc2ncc(Cl)c(Nc3ccc(C)c(C)c3P(C)(C)=O)n2)c(OC)cc1N1CCC(N2CC3CC(C2)N3C)CC1 [Compound 53, (6-((5-Chloro-2-((5-ethyl-2-methoxy-4-(4-(6-methyl-3,6-diazadicyclo[3.1.1]heptane-3-yl)piperidin-1-yl)phenyl)amino)pyrimidin-4-yl)amino)-2,3-dimethylphenyl)dimethylphosphine oxide]",0.269 nM
7,"COc1cc(N2CCC3(CC2)CC(N(C)C)C3)ccc1Nc1ncc(Cl)c(Nc2cc(C)c(C)cc2P(C)(C)=O)n1 [Compound 1, (6-((5-Chloro-2-((4-(2-(dimethylamino)-7-azaspiro[3.5]nonan-7-yl)-2-methoxyphenyl)amino)pyrimidin-4-yl)amino)-3,4-dimethylphenyl)dimethylphosphine oxide]",27 nM
8,CCc1cc(Nc2ncc(Cl)c(Nc3ccc(C)c(C)c3P(C)(C)=O)n2)c(OC)cc1N1CCC2(CC1)CN(COC)C2 [Compound 31],4.19 nM
9,"CCc1cc(Nc2ncc(Cl)c(Nc3cc(C)c(C)cc3P(C)(C)=O)n2)c(OC)cc1N1CCC(N2CC(N(C)C)C2)CC1 [Compound 15, (2-((5-chloro-2-((4-(4-(3-(dimethylamino)azetidin-1-yl)piperidine-1-yl)-5-ethyl-2-methoxyphenyl)amino)pyrimidin-4-yl)amino)-4,5-dimethylphenyl)dimethylphosphine oxide]",3.8 nM
10,COc1cc(N2CC3(CCN(CC(F)F)CC3)C2)c(Cl)cc1Nc1ncc(Cl)c(Nc2cc(C)c(C)cc2P(C)(C)=O)n1 [Compound 42],0.76 nM
11,CCc1cc(Nc2ncc(Cl)c(Nc3cc(Cl)c(Cl)cc3P(C)(C)=O)n2)c(OC)cc1N1CC2(CCN(C3CC3)CC2)C1 [Compound 37],0.49 nM
12,"COc1cc(N2CCC3(CC2)CC(N(C)C)C3)c(C)cc1Nc1ncc(Cl)c(Nc2cc(C)c(C)cc2P(C)(C)=O)n1 [Compound 9, (2-((5-Chloro-2-((4-(2-(dimethylamino)-7-azaspiro[3.5]nonan-7-yl)-2-methoxy-5-methylphenyl)amino)pyrimidin-4-yl)amino)-4,5-dimethylphenyl)dimethylphosphine oxide]",7 nM
13,"CCc1cc(Nc2ncc(Cl)c(Nc3cc(C)c(C)cc3P(C)(C)=O)n2)c(OC)cc1N1CC2(CCC(N(C)C)CC2)C1 [Compound 10, (2-((5-Chloro-2-((4-(7-(dimethylamino)-2-azaspiro[3.5]nonan-2-yl)-5-ethyl-2-methoxypheny 1)amino)pyrimidin-4-yl)amino)-4,5-dimethylphenyl)dimethylphosphine oxide]",13 nM
14,"CCc1cc(Nc2ncc(Cl)c(Nc3cc(C)cc(C)c3P(C)(C)=O)n2)c(OC)cc1N1CCC2(CC1)CC(N(C)C)C2 [Compound 18, (2-((5-Chloro-2-((4-(2-(dimethylamino)-7-azaspiro[3.5]non-7-yl)-5-ethyl-2-methoxyphenyl)amino)pyrimidin-4-yl)amino)-4,6-dimethylphenyl)dimethylphosphine oxide]",36 nM
